Format in all cases: in vivo, rat
In assay [1] the test system is plasma fibrinogen. Put plainly: Plasma fibrinogen assay (ELISA) in SHRSP. The settings on record: SHRSP rats. Details: Plasma fibrinogen: unit not given here. On the procedure: The mixture was centrifuged for 15 min at 3000 rpm and plasma fibrinogen in liquid supernatant was determined by euzymelinked immunosorbent assay (ELISA).
A general note: In an ELISA, binding on a coated surface is turned into a signal by an enzyme label.

Assay [2] relates to MCAO rats. Put plainly: Neurobehavioral examination (Bederson's score), MCAO acute ischemic stroke. On the procedure: Experimental animals: 100 male SD rats with a body weight of 250-280 g were purchased from the Experimental Animals Institute of the Chinese Academy of Medical Science. The rats were grouped randomly as a sham operation group, a model group, pinocembrin groups and a nimodipine group (3 mg/kg).
Experimental model: the model of acute ischemic stroke was made by middle cerebral artery occlusion (MCAO).
The string occlusion method in middle cerebral artery as established by Zea Longa was adopted with proper improvements. 400 mg/kg 10% chloral hydrate was intraperitoneally injected in rats. The external carotid artery (ECA) was separated and ligated at the site where the artery emitted for about 0.8 cm. The end of ECA closing to the heart was clipped by an artery clip. A 2 mm V-shaped incision was made from ECA ligation to ECA bifurcation. A nylon line was inserted gently into […] and then into internal carotid artery (ICA) through the bifurcation of ECA and ICA after loosening the artery clip. The nylon line was pushed into the brain through ICA and inserted in depth of 18.5±0.5 mm when resistance was felt slightly. The nylon line should reach smaller anterior cerebral artery through the beginning of middle cerebral artery (MCA) and ICA could be ligated and sutured. Stump of the nylon line should be reserved with 1 cm outside the skin.
Neurobehavioral examination was performed before the animals were put to death. The rats were raised off the ground for about 1 chi (1 chi=⅓ meter) to observe the state of two forelimbs. The rats were placed on the ground and were pushed by their shoulders to observe differences of their resistance. The rats were placed on the ground and were observed by the way of walking. Four-stage scoring method […] was adopted. The higher the score was, the more serious injury existed in their neurobehavior.
Bederson's scoring standard:
(1) If the rats acted completely normal, score 0 was recorded.
(2) When the rats were raised off the ground, if the rats rotated or retracted forelimb of surgery-contralateral side internally, score 1 was recorded.
(3) When the rats were placed on the ground and squeezed with the hand to examine the resistance of both sides, if the resistance of surgery-contralateral side declined, score 2 was recorded.
(4) When the rats were placed on the ground to observe the way of walking, if the rats circled around the surgery-contralateral side, score 3 was recorded.
(5) If the rats were injured too seriously to move by themselves, score 4 was recorded.

Assay [3] concerns plasma ET-1. Put plainly: Plasma ET-1 (radioimmunoassay) in SHRSP. As to conditions: plasma, SHRSP rats. Details: ET-1 content: unit not given here. On the procedure:
5) Blood of 2 mL was dropped rapidly in a cuvette with 30 μL 7.5% EDTA-2Na and 40 μL aprotinin and mixed. After centrifuged for 5 min at 3000 rpm, plasma ET-1 in liquid supernatant was determined by isotope radioimmunoassay.

Assay [4] has as its system tMCAO rats. Put plainly: Brain water content, tMCAO time window study. As to conditions: 2 hours ischemia and 24 hours reperfusion. As to the method: (§1) 1. In the test, transient middle cerebral artery occlusion (tMCAO) model of rats was adopted. The reperfusion was performed after focal cerebral ischemia for 2 hours so as to inspect therapeutic time window of pinocembrin after focal cerebral ischemia. The rats were administered by pinocembrin racemate (1 mg/kg, 5 mg/kg, intravenous injection) after reperfusion 1 hour, 4 hours and 6 hours (i.e., ischemia 3 hour, 6 hours and 8 hours). (R)-pinocembrin and (S)-pinocembrin (1 mg/kg, 5 mg/kg, intravenous injection) were administered after reperfusion 1 hour and 4 hours (i.e., ischemia 3 hour and 6 hours). The therapeutic time windows of these drugs in focal cerebral ischemia were assessed by studying their effects to neurological symptom scores, infarct sizes and brain water contents during 24 hours after tMCAO.
(§2) 2.4 Experimental Grouping and Administration • Sham operation group (intravenous injection of normal saline after 3 hours of ischemia); • Model group (intravenous injection of 50 mg/kg hydroxypropyl β-cyclodextrin after 3 hours of ischemia); • Nimodipine group (1 mg/kg, administered after 3 hours of ischemia); • Pinocembrin racemate group (1 mg/kg, 5 mg/kg, administered after 3, 6 and 8 hours of ischemia); • (R)-pinocembrin group (1 mg/kg, 5 mg/kg, administered after 3 and 6 hours of ischemia); • (S)-pinocembrin group (1 mg/kg, 5 mg/kg, administered after 3 and 6 hours of ischemia).
(§3) First administration was performed by intravenous injection, and intraperitoneal injection was carried out once 12 hours later with a dose 1.5 times of that for intravenous injection.
The wet weight of each animal's brain was weighted before sliced. After staining, the brain slices were dried at 105° C. for 24 hours, and the dry weight of each animal's brain was weighted. The brain water contents of animals of various groups were compared. Brain water content=(brain wet weight−brain dry weight)/brain wet weight×100%.

Assay [5] concerns tMCAO rats. In words: Neurobehavioral examination (Bederson's score), tMCAO time window study. As to conditions: 2 hours ischemia and 24 hours reperfusion. On the procedure: as §1
The CCA and ICA were clipped with artery clips. Two No. 0 surgery lines were litigated on the ECA distal end with 2-3 mm spacing and then the vascular between the two surgery lines was cut. The distal end of ECA was pulled until it formed a straight line with the ICA. An incision was cut on ECA and a nylon line was inserted through ECA into ICA. After the artery clip was loosen, the nylon line was pushed on into the brain through ICA and inserted in depth of 18.5±0.5 mm when resistance was felt slightly. The nylon line reached a smaller anterior cerebral artery through the beginning of MCA and then the blood flow obstruction in right MCA was established. the animals were kept in anesthesia during the obstruction. After 2 hours of obstruction, the nylon line was gently pulled out to ECA stub to form reperfusion. During the surgery process, the animals were irradiated by table lamp of 100 W to maintain the body temperature. The room temperature was kept in range of 23-25° C.
as §2, §3
Neurobehavioral examination was performed respectively when the animals were awake after surgery and before the animals were put to death. Bederson's score was adopted (see details in Example 2, 1. Neurobehavioral Examination).

Structures are written as SMILES.

Here are results for 2 molecules from US20110245334A1, “USE OF RACEMATES OF PINOCEMBRIN IN PREPARING MEDICAMENTS FOR TREATING STROKE” (CSPC Zhonggi Pharmaceutical Technology (Shijiazhuang) Co. …, priority 2008, published 2011).

With `O=C1CC(c2ccccc2)Oc2cc(O)cc(O)c21` (racemic) [Pinocembrin racemate, pinocembrin racemate], the results for the Plasma fibrinogen in assay [1] (3 mg/kg), in assay [1] (10 mg/kg) and in assay [1] (30 mg/kg) were 2.79 ± 0.13, 2.62 ± 0.15 and 2.56 ± 0.42, respectively. Besides, the “Bederson's score” value in assay [2] (3 mg/kg) came out at 2.4 ± 0.7; in assay [2] (10 mg/kg), 1.8 ± 0.6; in assay [2] (30 mg/kg) it was 1.5 ± 0.3. Further, the ET-1 content in assay [3] (3 mg/kg) came out at 221.4 ± 20.4; in assay [3] (10 mg/kg), 209.2 ± 16.7; in assay [3] (30 mg/kg) it was 182.4 ± 24.2. Moreover, the “Brain water content (%)” value in assay [4] (1 mg/kg, 3 h) was found to be 82.20 ± 1.00 %; in assay [4] (1 mg/kg, 6 h), 82.44 ± 1.28 %; in assay [4] (1 mg/kg, 8 h), 83.26 ± 1.05%; in assay [4] (5 mg/kg, 3 h), 82.23 ± 1.42 %; in assay [4] (5 mg/kg, 6 h) it was 81.12 ± 1.42 %; in assay [4] (5 mg/kg, 8 h) it was 83.29 ± 1.79%. The Neurobehavioral value in assay [5] (1 mg/kg, 3 h) amounted to 1.44 ± 0.72; in assay [5] (1 mg/kg, 6 h), 1.68 ± 0.46; in assay [5] (1 mg/kg, 8 h) it was 1.88 ± 0.61; in assay [5] (5 mg/kg, 3 h), 1.44 ± 0.52; in assay [5] (5 mg/kg, 6 h) it was 1.66 ± 0.77; in assay [5] (5 mg/kg, 8 h) it was 1.91 ± 0.66.

As to `COCCOC(=O)C1=C(C)NC(C)=C(C(=O)OC(C)C)C1c1cccc([N+](=O)[O-])c1` (centres unmarked) [Nimodipine, reference compound], the Plasma fibrinogen in assay [1] (3 mg/kg) stood at 2.67 ± 0.13. Moreover, the “Bederson's score” value in assay [2] (3 mg/kg) is 2.5 ± 0.7. Further, the ET-1 content in assay [3] (3 mg/kg) was determined as 174.8 ± 20.8. The “Brain water content (%)” value in assay [4] (1 mg/kg, 3 h) came to 83.33 ± 1.01%. The Neurobehavioral value in assay [5] (1 mg/kg, 3 h) was found to be 2.09 ± 0.63.
